Assay results reported in PMC7277387, “Tailoring Uptake Efficacy of HSV-1 gD Tailoring Uptake Efficacy of Hsv-1 GD Derived Carrier Peptides” (Biomolecules, 2020).

Legend:
[1] = format: physicochemical; settings: 1 mg/mL in serum-free DMEM, 37 °C, samples at 0, 3, 6 and 24 h, RP-HPLC C18, A220
Description: Before the cellular uptake studies the stability of the Cf-labelled synthetic peptides was determined. Peptides were dissolved at 1 mg/mL concentration in serum-free DMEM medium (Lonza, Basel, Switzerland), and incubated at 37 °C for 24 h. Samples for RP-HPLC (Knauer, Berlin, Germany) were taken at 0, 3, 6 and 24 h. Phenomenex Luna C18 column (5 μm, 300 Å, 4.6 mm × 250 mm) (Gen-Lab Ltd., Budapest, Hungary) was applied with a gradient of 0–5 min 5% B eluent elevated to 55% B during 25 min, where eluent A: 0.1% TFA/water, eluent B: 0.1% TFA/acetonitrile–water 80:20 (v/v).
Figure S12. Stability study of (a) Cf-(236-255) and (b) Cf-(228-247), dissolved in DMEM serum free medium and incubated at 37 °C, followed by RP-HPLC. Samples for RP-HPLC (Knauer, Berlin, Germany) were taken at 0, 3, 6 and 24 hrs. Phenomenex Luna C18 column (5 μm, 300 Å, 4.6 mm × 250 mm) was applied with a gradient of 0-5 min 5% eluent B elevated to 55% B during 25 min, where eluent A: 0.1% TFA / water, eluent B: 0.1% TFA / acetonitrile –water 80:20 (v/v). Control: DMEM serum free medium. In case of Cf-(236-255) evaporation during the incubation caused increasing peptide peaks. Both peptides contain oxidation sensitive Trp residue. Cf -(236-255) was stable even after 24 h, the rising intensity of the peak representing the peptide is due to evap oration during the […]
to be stable during this interval. […]

[2] = tested on: SH-SY5Y neuroblastoma cells; assay: Cellular uptake of Cf-labelled peptides by flow cytometry; settings: for cellular uptake (in words): Figure S19
[3] = Secondary structure of acetylated peptides by far-UV ECD spectroscopy; format: physicochemical; settings: acetylated peptide; for α-helix fraction (PEPFIT): far-UV ECD, PEPFIT fit
Description: ECD spectra of acetylated HSV peptides were recorded using a Jasco J-810 and Jasco J-715 spectropolarimeter (Jasco Corporation, Tokyo, Japan) in the λ = 180–270 nm wavelength range using a 0.02 or a 0.1 cm path length quartz cell at room temperature, under constant nitrogen flush with continuous scanning mode. All spectra reported here were obtained as an average of three or five individual scans and corrected with the solvent ECD spectra. The J-810 equipment was calibrated with ammonium α-10-camphor-sulfonate. The samples were dissolved in trifluoroethanol (TFE) (Sigma), distilled water and a 1:1 (v/v) mixture of TFE:water. The solution concentration was in the range of 0.5–0.7 mg/mL (J-810) or ~0.14 mg/mL (J-715) for peptide amides. ECD band intensities are expressed in mean residual molar ellipticity unit. The percentage of the different conformational elements contributing to the ECD spectra was calculated by the MS Excel version of the PEPFIT program developed originally by Reed and Reed. The algorithm estimates the percentage of secondary contents by fitting experimental ECD data to the combination of reference spectra. The best fit is defined by the R^2 value, where an R^2 = 1 corresponds to a perfect match.
The helical content of the peptides in different solvents was also estimated employing the simple equation formulated by Chen and Yang: fH = -([Θ]222 + 2340)/30,300 where fH the fraction of helix and [Θ]222 is the measured mean residual ellipticity at 222 nm. It seems that the helical fractions obtained correlate favourably with the results of the curve fitting procedure (Table 2). […]

## CC[C@H](C)[C@H](NC(=O)[C@H](CCCCN)NC(=O)[C@H](CC(C)C)NC(=O)c1ccc2c(c1)C(=O)OC21c2ccc(O)cc2Oc2cc(O)ccc21)C(=O)N[C@@H](C)C(=O)NCC(=O)N[C@@H](Cc1c[nH]c2ccccc12)C(=O)N[C@@H](Cc1c[nH]cn1)C(=O)NCC(=O)N1CCC[C@H]1C(=O)N[C@@H](CCCCN)C(=O)N[C@@H](C)C(=O)N1CCC[C@H]1C(=O)N[C@@H](Cc1ccc(O)cc1)C(=O)N[C@H](C(=O)N[C@@H](CO)C(=O)N[C@H](C(=O)N[C@@H](CC(C)C)C(=O)N[C@@H](CC(C)C)C(=O)N1CCC[C@H]1C(=O)N1CCC[C@H]1C(N)=O)[C@@H](C)O)[C@@H](C)O [Cf-(236–255)]
[1]
  stability of the intact peptide: stable even

## Cf-TKPKGTKPKG [OT10]
[2]; c = 10 µM, compared with Cf-HSV peptides
  cellular uptake (in words): did not reach the level of internalisation of HSV peptides even with moderate uptake level
[2]; c = 50 µM
  cellular uptake (in words): effective cellular uptake, though not reaching 100%

## CC[C@H](C)[C@H](NC(=O)[C@H](CCCCN)NC(=O)[C@H](CC(C)C)NC(=O)[C@H](CO)NC(=O)[C@H](Cc1ccc(O)cc1)NC(=O)[C@@H](NC(=O)[C@H](C)NC(=O)[C@@H](NC(=O)[C@@H](NC(=O)[C@H](CCCNC(=N)N)NC(=O)[C@H](CCC(N)=O)NC(=O)c1ccc2c(c1)C(=O)OC21c2ccc(O)cc2Oc2cc(O)ccc21)[C@@H](C)O)C(C)C)C(C)C)C(=O)N[C@@H](C)C(=O)NCC(=O)N[C@@H](Cc1c[nH]c2ccccc12)C(=O)N[C@@H](Cc1c[nH]cn1)C(=O)NCC(=O)N1CCC[C@H]1C(=O)N[C@@H](CCCCN)C(=O)N[C@@H](C)C(=O)N1CCC[C@H]1C(N)=O [Cf-(228–247)]
[1]
  stability of the intact peptide: decreased intensity of the intact peptide

## Cf-^219M*LPRFIPENQRTVAVYSLKI^238 [Cf-(219–238)]
[2]; c = 2 μM, 3 h
  percentage of Cf-positive live cells: 15–20%

## ^-1 GKYALADASLKMADPNRF^19 [acetylated HSV-1 gD -1–19 peptide amide for ECD]
[3]; H2O
  disordered fraction (PEPFIT): 64%
  turn fraction (PEPFIT): 24%
  β-sheet fraction (PEPFIT): 4%
[3]; H2O, room temperature
  α-helix fraction (PEPFIT): 8%
[3]; H2O:TFE 1:1 (v/v)
  disordered fraction (PEPFIT): 10%
  turn fraction (PEPFIT): 40%
  β-sheet fraction (PEPFIT): 0%
  α-helix fraction (PEPFIT): 50%
[3]; TFE
  disordered fraction (PEPFIT): 0%
  turn fraction (PEPFIT): 30%
  β-sheet fraction (PEPFIT): 0%
  α-helix fraction (PEPFIT): 70%
